{
  "source": "ChEMBL document CHEMBL1126351",
  "about": "“()-7-deazacarbovir as a compound with potential anti-hiv and anti-hcmv properties” (Bioorg Med Chem Lett, 1992)",
  "test_system": "HFF",
  "assay": "Compound was evaluated for CPE inhibition using anti-HCMV assay in AD169 strain infected HFF cells",
  "assay_type": "functional, cell-based",
  "conditions": "Homo sapiens",
  "data": [
    {"compound": "Nc1nc(O)c2ccn(C3C=CC(CO)C3)c2n1", "note": "(configuration not stated)", "values": [
      {"measurement": "EC50", "result": 350, "unit": "µM"},
      {"measurement": "IC50", "result": "> 410", "unit": "µM"}
    ]}
  ]
}
